Experimental data as given in patent US12673039B2, “Methods of inducing autophagy using coumarin derivatives and related compounds” (Buck Institute for Research on Aging, priority 2019, dated 2026).

What was measured:
[1] = biological target: T1, human FXR (Homo sapiens, UniProt Q96RI1); experiment: Human FXR antagonist reporter assay; format: cell-based
T1 construct: purchased Cayman
T1 sequence (Q96RI1 1-486): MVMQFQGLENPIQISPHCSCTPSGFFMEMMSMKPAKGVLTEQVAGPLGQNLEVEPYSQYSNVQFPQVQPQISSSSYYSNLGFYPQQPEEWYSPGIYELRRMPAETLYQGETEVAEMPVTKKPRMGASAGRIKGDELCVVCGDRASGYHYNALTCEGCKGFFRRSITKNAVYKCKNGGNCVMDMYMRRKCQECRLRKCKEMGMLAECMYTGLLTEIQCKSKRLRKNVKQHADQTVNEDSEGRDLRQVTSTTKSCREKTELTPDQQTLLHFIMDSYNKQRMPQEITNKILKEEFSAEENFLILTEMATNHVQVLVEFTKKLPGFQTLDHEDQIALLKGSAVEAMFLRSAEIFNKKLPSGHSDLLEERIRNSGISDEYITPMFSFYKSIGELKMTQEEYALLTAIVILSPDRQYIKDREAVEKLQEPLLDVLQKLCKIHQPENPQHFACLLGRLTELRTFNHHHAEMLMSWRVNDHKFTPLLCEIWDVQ
Description: FIG. 7 illustrates that coumarin 106 (“C1”, “AIC106”) acts as a potent FXR antagonist. The ability of C1 (AIC106) (10 μM and 30 μM) to inhibit activation of the FXR agonist […] (GW, 150 μM) was interrogated using a commercially available kit (Indigo Biosciences) versus the established natural FXR ligands TUDCA and UDCA (50 μM and 100 μM). Values are fold induction versus untreated controls; ****p<0.01 versus GW; **p<0.05 versus GW.
FIG. 23, panels A-H: FXR modulation enhances HLH-30 expression in human neuronal SH-SY5Y cells. Panel A) Effects of AIC106 on human FXR activity was determined in a mammalian one-hybrid based kit assay by quantifying changes in the luciferase activity of FXR ligand (GW4064, GW) induced treatment. […] Panel B) Protein expression of TFEB, cathepsin-D (CAT-D) and small heterodimer partner-1 (SHP-1) was determined by immunoblot in neuronal SH-SY5Y cells post-24 hours of treatment with AIC106 and DMSO-control. […] Autophagic flux in DMSO-control and AIC106 treated neuronal cells was determined by quantifying levels of autophagosome specific LC3-II protein both in presence and absence of autophagy inhibitor bafliomycin A1 (Baf A, 10 nM). […]
Antagonistic activity of the AIC106 on human FXR was determined using a commercially available FXR Human reporter assay kit (Cayman) according to the supplied manual. […] Luminescence was quantified. […]

[2] = test system: AM141 worm; experiment: polyQ40 aggregation in AM141 worms; format: in vivo, C. elegans; details: dose dependent
Source text: FIG. 21, panels A-F: AIC106 prevents neuronal loss and proteotoxicity in strains expressing human neurotoxic proteins. Panel A) Dopaminergic neuronal loss in day-5 UA44 worms was quantified by scoring percentage of worms with intact 4-CEP neurons in AIC106 and DMSO-control treatment. [N=3 independent experiments (mean±SD). ***p<0.001, by one-way ANOVA with Tukey's multiple comparisons test]. Motor function in (panel B) day-7 NL5901 and (panel C) day-5 CL2006 worms were quantified by scoring number of thrashes for an individual worm over the period of 30 seconds (dots) in AIC106 and DMSO-control treatment. […] Panel D) Motor function in temperature sensitive (enhanced paralysis at 25° C.) CL4176 worms was determined by scoring percent of worms paralyzed in AIC106 and DMSO-control treatment. […] P-value calculated by Logrank test]. Panel F) Effect of AIC106 on polyQ40 aggregation was determined by scoring number of polyQ40-YFP fluorescent puncta in an individual AM141 worm treated with AIC106 and DMSO-control. […]
Synchronized populations of day-1 adult worms expressing reporter GFP transgene or stained with a dye/stain (Lysotracker and TMRM) and grown at 20° C. were transferred to compound or DMSO plates. Fluorescence expression was analyzed at the time specified for each individual strain (see figure legends). […] Fluorescence intensity normalized to worm area was measured using NIH ImageJ software. […]

O=c1oc2c3c4c(cc2c2c1CCC2)CCCN4CCC3 [C1, 2,3,6,7,10,11-Hexahydro-1H,5H-cyclopenta(3,4)(1)benzopyrano(6,7,8-ij)quinolizin-12(9H)-one]
FXR activation elicited by the FXR agonist GW4064 ([1]; C1 10 μM and 30 μM versus TUDCA and UDCA (FIG. 7)): significantly inhibited FXR activation | ligand-induced activation of human FXR ([1]; FXR ligand GW4064 (FIG. 23, panel A)): prevented ligand-induced activation of the human FXR protein | poly-Q40 aggregates [2]: significantly decreased poly-Q40 aggregates
